Literature values, collected in patent publication US20240216546A1, “MODEL OPTIMIZED DRUG AND DRUG COMBINATIONS FOR TREATING CANCERS” (My Personal Therapeutics, priority 2021, published 2024).

System: non-small cell lung cancer
Details: erlotinib in combination with first line chemotherapy (carboplatin and paclitaxel)
[1] = patients with the KRAS mutation

For C#Cc1cccc(Nc2ncnc3cc(OCCOC)c(OCCOC)cc23)c1 [erlotinib], the time-to-progression (group with wild-type KRAS) is listed as 12 months, the overall survival [1] is listed as “four” and the time to progression [1] is listed as “three”.
